Values of other authors as cited in US20070122366A1 (priority 2005, published 2007).

Key:
[1] = oral administration

persistence of concentration in nails ([1]; after the treatment has finished): at least 30 weeks
time at which concentration in nails is detected ([1]; after therapy started): within the first week
Compound: CN(C/C=C/C#CC(C)(C)C)Cc1cccc2ccccc12 [Terbinafine]
average mycological cure (onychomycosis; 18 randomized controlled trials, onychomycosis): 76%
activity in comparative studies (onychomycosis; treatment of toenail onychomycosis): greater than itraconazole and fluconazole
